From US20120245137A1 (Zalicus Pharmaceuticals Ltd., priority 2009, published 2012)
Where two headings read alike, the source gives them in different places.

Columns and labels:
[1] = molecular target: N-type calcium channel subunits (α1B, α2δ, and β3a) (Homo sapiens, UniProt Q00975); test: Block of Cav2.2 channel, whole cell voltage clamp, manual and PatchXpress; type: cell-based; conditions: Table 5; table follows Assay Example 3 (whole cell voltage clamp / PatchXpress); assay not given
Outline: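 Percent block taken as current amplitude ratio with versus without compound, applied in rising doses; IC50 fitted where one cell received multiple doses. Protocol: 50 ms pulses to +20 mV at 0.067 Hz from […] or −90 mV holding; P/n leak subtraction, no junction-potential correction; manual and PatchXpress recordings.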

[2] = test system: male CF1 mice; test: 6 Hz psychomotor seizure model of partial epilepsy; type: in vivo; design: concentration or dose not given beside the values; conditions: 6 Hz 32 mA corneal stimulus
Description: Compounds can also be evaluated for the protection against seizures induced by a 6 Hz, 0.2 ms rectangular pulse width of 3 s duration, at a stimulus intensity of 32 mA (CC97) applied to the cornea of male CF1 mice (20-30 g) according to procedures described by Barton et al, “Pharmacological Characterization of the 6 Hz Psychomotor Seizure Model of Partial Epilepsy,” Epilepsy Res. 47(3):217-27 (2001). Seizures are characterised by the expression of one or more of the following behaviours: stun, forelimb clonus, twitching of the vibrissae and Straub-tail immediately following electrical stimulation.

[3] = test system: mice; conditions: mouse, in vivo
Description: (§2) In mice, the rotarod procedure (Dunham and Miya, J. Am. Pharmacol. Assoc. 46:208-209 (1957)) is used to disclose minimal muscular or neurological impairment (MMI). When a mouse is placed on a rod that rotates at a speed of 6 rpm, the animal can maintain its equilibrium for long periods of time. The animal is considered toxic if it falls off this rotating rod three times during a 1-min period.

[4] = test system: mice; test: Mouse rotarod assay; conditions: rod at 6 rpm
Description: as §2

[5] = molecular target: Human Cav 2.2 channels (Homo sapiens, UniProt Q00975); test: Fluorescent assay for CaV2.2 channels using potassium depolarization (VIPR/FLIPR); type: cell-based; conditions: FLIPR data
Outline: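 HEK293 cells stably expressing human Cav2.2 with α2δ and β subunits plus Kir2.3 were loaded with fluo-4 and incubated 30 min at 25 °C with compound in 4, 12, 25 or 30 mM potassium buffer. Channels were opened with 70 mM potassium (final) and calcium influx was read by fluorescence (Ex 480/Em 535 nm).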

[6] = molecular target: T-type calcium channel (Homo sapiens, UniProt O43497); test: T-type channel blocking, FLIPR data (Table 6); type: cell-based; conditions: CAv3.1
Description: (§1) Another method, high-throughput spectrophotometric assay, utilizes loading of the cell lines with a fluorescent dye sensitive to intracellular calcium concentration and subsequent examination of the effects of compounds on the ability of depolarization by potassium chloride or other means to alter intracellular calcium levels.

[7] = molecular target: T-type calcium channel (Homo sapiens, UniProt O95180); test: T-type channel blocking, FLIPR data (Table 6); type: cell-based; conditions: for CAv3.2 IC50 Ratio closed/inact.: CAv3.2, ratio closed/inact.
Description: as §1

[8] = molecular target: CAv1.2 (Homo sapiens, UniProt Q13936); test: L-type (CAv1.2) channel blocking, FLIPR data (Table 6); type: cell-based
[9] = closed state, read-out: CAv2.2 IC50 Closed
[10] = inactivated state, read-out: CAv2.2 IC50 Inact.
[11] = CAv3.2, closed state, read-out: CAv3.2 IC50 Closed
[12] = CAv3.2, inactivated state, read-out: CAv3.2 IC50 Inact.
[13] = closed state, read-out: CAv1.2 IC50 Closed
[14] = inactivated state, read-out: CAv1.2 IC50 Inact.

Chain of Human Cav 2.2 channels (Q00975 whole entry): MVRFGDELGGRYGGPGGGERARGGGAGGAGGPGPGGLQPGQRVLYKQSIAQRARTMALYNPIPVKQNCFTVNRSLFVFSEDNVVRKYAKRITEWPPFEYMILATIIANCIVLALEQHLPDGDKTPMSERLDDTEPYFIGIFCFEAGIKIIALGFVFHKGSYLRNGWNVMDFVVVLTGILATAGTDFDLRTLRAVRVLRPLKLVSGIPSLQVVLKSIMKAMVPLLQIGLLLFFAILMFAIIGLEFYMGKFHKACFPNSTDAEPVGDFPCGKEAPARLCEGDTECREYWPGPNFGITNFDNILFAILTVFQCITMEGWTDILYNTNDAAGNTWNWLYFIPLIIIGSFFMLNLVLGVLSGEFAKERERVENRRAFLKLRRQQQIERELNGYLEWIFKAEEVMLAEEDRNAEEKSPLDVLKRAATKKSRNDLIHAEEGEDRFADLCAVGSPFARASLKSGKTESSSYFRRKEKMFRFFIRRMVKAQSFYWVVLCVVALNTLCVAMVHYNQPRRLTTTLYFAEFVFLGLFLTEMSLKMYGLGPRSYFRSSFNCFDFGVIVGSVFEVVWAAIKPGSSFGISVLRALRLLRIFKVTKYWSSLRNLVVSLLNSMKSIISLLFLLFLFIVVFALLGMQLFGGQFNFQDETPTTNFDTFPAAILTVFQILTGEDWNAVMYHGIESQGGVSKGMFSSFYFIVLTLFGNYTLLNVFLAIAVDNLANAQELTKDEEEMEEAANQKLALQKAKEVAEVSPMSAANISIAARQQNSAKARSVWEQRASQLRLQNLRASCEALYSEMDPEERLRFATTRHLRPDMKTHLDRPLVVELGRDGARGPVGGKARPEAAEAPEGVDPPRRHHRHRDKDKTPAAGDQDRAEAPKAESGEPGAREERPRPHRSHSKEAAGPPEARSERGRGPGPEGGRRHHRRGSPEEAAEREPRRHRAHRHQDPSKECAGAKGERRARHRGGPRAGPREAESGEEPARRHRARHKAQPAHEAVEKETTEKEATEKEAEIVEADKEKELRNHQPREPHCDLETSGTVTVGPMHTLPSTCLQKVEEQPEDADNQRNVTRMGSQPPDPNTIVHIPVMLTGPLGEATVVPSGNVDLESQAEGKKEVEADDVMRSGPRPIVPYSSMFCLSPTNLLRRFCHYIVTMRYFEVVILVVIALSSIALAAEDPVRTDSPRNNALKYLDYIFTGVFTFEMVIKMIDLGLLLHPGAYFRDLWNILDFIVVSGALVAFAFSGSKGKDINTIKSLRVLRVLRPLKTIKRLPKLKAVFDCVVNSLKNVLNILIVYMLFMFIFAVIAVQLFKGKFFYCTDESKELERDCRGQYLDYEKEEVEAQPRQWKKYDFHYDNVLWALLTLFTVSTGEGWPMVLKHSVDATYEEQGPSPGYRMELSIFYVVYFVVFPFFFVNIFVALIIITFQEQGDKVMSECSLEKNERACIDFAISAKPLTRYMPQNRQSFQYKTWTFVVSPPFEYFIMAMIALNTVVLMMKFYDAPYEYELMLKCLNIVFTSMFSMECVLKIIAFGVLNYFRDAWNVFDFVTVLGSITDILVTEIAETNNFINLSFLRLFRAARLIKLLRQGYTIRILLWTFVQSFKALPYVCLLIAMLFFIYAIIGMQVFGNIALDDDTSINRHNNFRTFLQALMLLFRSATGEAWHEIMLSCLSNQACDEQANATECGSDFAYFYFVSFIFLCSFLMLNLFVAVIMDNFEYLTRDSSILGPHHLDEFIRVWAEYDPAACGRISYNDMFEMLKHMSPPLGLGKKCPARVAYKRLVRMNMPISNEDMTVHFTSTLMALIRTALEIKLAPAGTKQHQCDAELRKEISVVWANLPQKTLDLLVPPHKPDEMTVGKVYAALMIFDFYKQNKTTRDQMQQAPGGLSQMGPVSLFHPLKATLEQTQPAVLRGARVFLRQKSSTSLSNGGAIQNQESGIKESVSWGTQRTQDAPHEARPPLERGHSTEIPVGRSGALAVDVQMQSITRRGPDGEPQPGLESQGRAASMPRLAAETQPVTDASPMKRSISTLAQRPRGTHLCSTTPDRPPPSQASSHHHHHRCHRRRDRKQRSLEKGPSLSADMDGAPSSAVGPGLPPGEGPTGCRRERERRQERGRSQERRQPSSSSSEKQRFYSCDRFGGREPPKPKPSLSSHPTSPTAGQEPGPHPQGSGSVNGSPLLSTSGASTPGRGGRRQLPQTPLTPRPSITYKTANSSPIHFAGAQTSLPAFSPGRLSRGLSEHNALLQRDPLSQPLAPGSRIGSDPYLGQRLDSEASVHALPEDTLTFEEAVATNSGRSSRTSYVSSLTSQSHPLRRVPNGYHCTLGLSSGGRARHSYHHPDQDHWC
Chain of Human Cav 2.2 channels (P54289 25-1103 partner): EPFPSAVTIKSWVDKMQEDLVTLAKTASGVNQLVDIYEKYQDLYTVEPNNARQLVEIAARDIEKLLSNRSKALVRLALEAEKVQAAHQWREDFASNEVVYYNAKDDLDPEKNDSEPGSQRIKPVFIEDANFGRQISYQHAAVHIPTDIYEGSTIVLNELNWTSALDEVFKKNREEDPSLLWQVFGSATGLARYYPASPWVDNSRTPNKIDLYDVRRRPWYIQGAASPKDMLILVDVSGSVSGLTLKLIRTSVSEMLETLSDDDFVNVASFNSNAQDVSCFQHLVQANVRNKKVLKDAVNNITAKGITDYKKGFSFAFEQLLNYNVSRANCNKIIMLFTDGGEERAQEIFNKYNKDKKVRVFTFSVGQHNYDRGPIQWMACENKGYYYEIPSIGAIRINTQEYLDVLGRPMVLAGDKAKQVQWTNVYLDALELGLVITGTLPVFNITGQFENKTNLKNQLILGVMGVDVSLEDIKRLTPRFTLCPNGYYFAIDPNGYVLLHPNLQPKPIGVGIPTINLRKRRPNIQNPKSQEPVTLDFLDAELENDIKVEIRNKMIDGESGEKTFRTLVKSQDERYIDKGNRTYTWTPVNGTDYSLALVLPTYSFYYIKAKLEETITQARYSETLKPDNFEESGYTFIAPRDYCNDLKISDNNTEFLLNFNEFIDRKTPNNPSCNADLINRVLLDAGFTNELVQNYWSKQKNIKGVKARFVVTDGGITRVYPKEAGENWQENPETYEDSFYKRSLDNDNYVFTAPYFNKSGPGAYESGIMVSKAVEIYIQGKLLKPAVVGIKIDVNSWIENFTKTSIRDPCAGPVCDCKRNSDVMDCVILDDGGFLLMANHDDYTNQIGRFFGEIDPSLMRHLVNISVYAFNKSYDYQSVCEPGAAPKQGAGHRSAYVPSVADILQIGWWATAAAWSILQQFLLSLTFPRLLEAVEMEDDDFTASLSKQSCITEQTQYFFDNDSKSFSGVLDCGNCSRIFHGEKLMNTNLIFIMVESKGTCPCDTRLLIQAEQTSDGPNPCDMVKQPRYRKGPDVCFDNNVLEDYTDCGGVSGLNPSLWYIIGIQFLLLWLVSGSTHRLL
Chain of Human Cav 2.2 channels (P54284 whole entry partner): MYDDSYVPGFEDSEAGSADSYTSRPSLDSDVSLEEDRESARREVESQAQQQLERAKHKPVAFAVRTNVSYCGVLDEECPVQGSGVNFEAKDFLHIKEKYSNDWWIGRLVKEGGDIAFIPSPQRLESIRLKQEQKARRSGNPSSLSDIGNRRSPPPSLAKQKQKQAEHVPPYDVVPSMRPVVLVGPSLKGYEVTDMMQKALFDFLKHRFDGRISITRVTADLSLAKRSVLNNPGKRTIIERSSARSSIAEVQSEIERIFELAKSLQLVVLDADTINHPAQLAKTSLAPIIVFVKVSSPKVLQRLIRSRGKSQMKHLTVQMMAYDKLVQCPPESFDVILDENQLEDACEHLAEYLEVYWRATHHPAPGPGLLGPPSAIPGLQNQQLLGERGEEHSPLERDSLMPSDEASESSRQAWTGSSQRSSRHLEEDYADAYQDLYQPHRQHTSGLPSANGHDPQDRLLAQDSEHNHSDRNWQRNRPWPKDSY
Chain of N-type calcium channel subunits (α1B, α2δ, and β3a) (Q00975 whole entry): as the sequence (Q00975 whole entry) above
Chain of N-type calcium channel subunits (α1B, α2δ, and β3a) (P54289 25-1103 partner): as the sequence (P54289 25-1103 partner) above
Chain of N-type calcium channel subunits (α1B, α2δ, and β3a) (P54284 whole entry partner): as the sequence (P54284 whole entry partner) above

Row | Structure (SMILES) | Epilepsy 6 Hz (% protected) 0.25 hr [2] [%] | Epilepsy 6 Hz (% protected) 0.5 hr [2] [%] | Epilepsy 6 Hz (% protected) 1 hr [2] [%] | Epilepsy 6 Hz (% protected) 2 hr [2] [%] | Epilepsy 6 Hz (% protected) 4 hr [2] [%] | EPILEPSY ROTAROD (% IMPAIRED) 0.25 hr [4] [%] | EPILEPSY ROTAROD (% IMPAIRED) 0.5 hr [4] [%] | EPILEPSY ROTAROD (% IMPAIRED) 1 hr [4] [%] | EPILEPSY ROTAROD (% IMPAIRED) 2 hr [4] [%] | EPILEPSY ROTAROD (% IMPAIRED) 4 hr [4] [%] | IC50 [5, 9] [µM] | IC50 [5, 10] [µM] | CAv2.2 IC50 Ratio closed/inact. [5] | IC50 [6] [µM] | IC50 [7, 11] [µM] | IC50 [7, 12] [µM] | CAv3.2 IC50 Ratio closed/inact. [7] | IC50 [8, 13] [µM] | IC50 [8, 14] [µM] | also measured
1 | O=S(=O)(c1cccc(C(F)(F)F)c1)C1CC(c2c[nH]c(C(F)(F)F)n2)C1 [Compound 442, 2-(trifluoromethyl)-4-((1R,3R)-3-(3-(trifluoromethyl)phenylsulfonyl)cyclobutyl)-1H-imidazole] | 50 | 25 | 75 | 0 | 0 |  |  |  |  |  |  |  |  |  |  |  |  |  |  | IC50 [1]: 2840 nM; EPILEPSY ROTAROD (% IMPAIRED) 0.25 hr [3]: 0%; EPILEPSY ROTAROD (% IMPAIRED) 0.5 hr [3]: 0%; EPILEPSY ROTAROD (% IMPAIRED) 1 hr [3]: 0%; EPILEPSY ROTAROD (% IMPAIRED) 2 hr [3]: 0%; EPILEPSY ROTAROD (% IMPAIRED) 4 hr [3]: 0%
2 | CC(C)([C@H]1C[C@@H](NC(=O)c2ccc(C(F)(F)F)cc2S(C)(=O)=O)C1)S(=O)(=O)c1cccc(C(F)(F)F)c1 [Compound 542] | 0 | 0 | 0 | 0 | 0 | 0 | 0 | 0 | 0 | 0 |  |  |  |  |  |  |  |  |  | 
3 | CC(C)([C@H]1C[C@@H](NC(=O)c2cc(C(F)(F)F)n[nH]2)C1)S(=O)(=O)c1cccc(C(F)(F)F)c1 [Compound 543] | 0 | 0 | 0 | 0 | 0 | 0 | 0 | 0 | 0 | 0 |  |  |  |  |  |  |  |  |  | 
4 | CC(C)([C@H]1C[C@@H](NC(=O)c2cc(C(F)(F)F)ccn2)C1)S(=O)(=O)c1cccc(C(F)(F)F)c1 [Compound 551] | 25 | 0 | 0 | 0 | 0 | 0 | 0 | 0 | 0 | 0 |  |  |  |  |  |  |  |  |  | 
5 | O=C(NC[C@H]1C[C@H](S(=O)(=O)c2cccc(Cl)c2)C1)c1ccc(C(F)(F)F)cc1 [Compound 771] |  |  |  |  |  |  |  |  |  |  | 10 | 2.01 | 5 | ≥ 10 | 5.44 | 3.04 | 1.8 | ≥ 10 | ≥ 10 | 
6 | O=C(NC[C@H]1C[C@H](S(=O)(=O)c2cccc(Cl)c2)C1)c1ccc(OCC(F)(F)F)nc1 [Compound 775] |  |  |  |  |  |  |  |  |  |  | 10 | 5.78 | 1.7 | ≥ 10 | 8.66 | 1.62 | 5.3 | ≥ 10 | ≥ 10 | 
